Results on three molecules are retold here after patent US11896564B2, “Medical treatment for pathologic inflammation” (PHARMACYL AB, priority 2018, dated 2024).

Counter-ions that a name gives are not always drawn.

Assay [1] deals with LPS-induced TNF-α production in RAW264.7 murine macrophage cells. Briefly: Suppression of LPS-induced TNF-α production in RAW264.7 macrophages (ELISA). The assay is classed as cell-based. The conditions noted are these: Mus musculus; 1 mM test substance; LPS 1 μg/ml; RAW264.7 cells. The text has this: UC is an inflammatory disease characterized by the infiltration of inflammatory cells, such as macrophages, into the lesioned colon. Macrophages serve a critical role in the initiation and propagation of inflammatory responses by releasing proinflammatory mediators, such as TNF-α. Lipopolysaccharide (LPS) is a potent initiator of an inflammatory response. During LPS stimulation, NF-κB signaling is activated to regulate the transcription of numerous genes involved in immunity and inflammation to produce proinflammatory cytokines, such as TNF-α. Suppression of LPS-induced TNF-α production in RAW264.7 macrophages treated with AABZ was investigated by evaluation of the generation of TNF-α. The aim of this study was to evaluate the anti-inflammatory activity of AABZ.
The RAW264.7 macrophage line was maintained in DMEM supplemented with 5% FBS at 37° C. in a 5% […] air environment. The RAW264.7 cells were seeded in 96-well plates at a density of 1×10^5/ml and a volume of 200 μl/well. […] The supernatants were subsequently harvested at various time points and production of the proinflammatory cytokine TNF-α in the culture medium was determined using a commercially available enzyme-linked immunosorbent assay (ELISA) kit according to the manufacturer's protocol. […]

For assay [2], the system named is DSS-induced acute colitis in Balb/c mice. Briefly: Dextran sulfate sodium (DSS)-induced acute colitis, disease activity index. It counts as in vivo. The conditions noted are these: day 5. As for the experimental part: The experiment was performed using 6-8-week-old female Balb/c mice after a one-week acclimatization period. The mice weighed 18-25 g, were purchased from Taconic (Denmark) and were maintained in a temperature and light-controlled facility with free access to standard rodent chow and water. Mice were randomized to the respective groups five days before start of treatment and were kept 5 to 6 animals per cage. […] The DSS intake was assessed daily.
SASP (from Sigma-Aldrich, Sweden) was first dissolved in 0.2 M sodium hydroxide (NaOH) at a concentration higher than the required final concentration. Phosphate buffered saline (PBS) was added to the desired concentration and the pH was adjusted to 7.5-8.0 with NaOH or hydrochloric acid. SASP remained completely dissolved at this pH. Cpd A hydrochloride was dissolved in PBS to the desired concentration.
All animal groups had free access to 5% DSS water solution for the entire test period. Treatments were administered from day 0 to day 5, either orally by gavage (SASP) or intraperitoneally (Cpd A), and in an administration volume of 5 ml/kg, twice daily with approximately an 8-hour interval. The control group (DSS only) received water (0.2 ml) orally twice daily. The parameters recorded in the experiment were stool consistency (0, normal; 2, loose stools; 4, watery diarrhoea), occurrence of blood in the stool (0, normal; 2, Hemoccult+; 4, gross bleeding), and body weight loss (0, none; 1, 1-5%; 2, 5-10%; 3, 10-20%; 4, >20%). Disease activity index (DAI) was calculated by summarizing the scores of these three parameters. Also the colon length and the colonic content of myeloperoxidase (MPO) were recorded. Data was statistically evaluated with analysis of variance (ANOVA). Least-squares means (LS means), and standard error (SE) of LS means were calculated.

As usually defined, the inhibition is the relative decrease from the control value, in per cent. For `CCN(CC)CCNC(=O)c1ccc(NC(C)=O)cc1` [4-Acetamido-N-[2-(diethylamino)ethyl]benzamide hydrochloride], the inhibition at 1000 µM in assay [1] is 56%.
On to `CCN(CC)CCNC(=O)c1ccc(NC(C)=O)c(Cl)c1` [Cpd A, 4-Acetamido-3-chloro-N-[2-(diethylamino)ethyl]benzamide hydrochloride], for which, in assay [2] (Cpd A 50 mg/kg/day bid ip), the “Percent Reduction of Score (Disease Activity Index) vs control” value came out at 7%.
`O=C(O)c1cc(/N=N/c2ccc(S(=O)(=O)Nc3ccccn3)cc2)ccc1O` [SASP, sulfasalazine]: in assay [2] (SASP 20 mg/kg/day bid po), the “Disease Activity Index LS means ± SE” value is listed as 6.4 ± 0.5. Besides, the “Percent Reduction of Score (Disease Activity Index) vs control” value in assay [2] (SASP 20 mg/kg/day bid po) turned out to be 8%; in assay [2] (SASP 40 mg/kg/day bid po), 36%.
